Species on record: Rattus norvegicus
Assay: DrugMatrix - Regimen: Daily Repeat
Type: toxicity, organism-based, Sprague-Dawley
Design: regimen Daily Repeat, gender Male, age 6-8 weeks
Details: in vivo, po, route oral GAVAGE, vehicle .5 % CMC; for ABSOLUTE BASOPHIL / ABSOLUTE EOSINOPHIL / ABSOLUTE LYMPHOCYTE / ABSOLUTE MONOCYTE / ABSOLUTE SEGMENTED NEUTROPHIL / BASOPHIL / EOSINOPHIL / HEMATOCRIT / LEUKOCYTE COUNT / LYMPHOCYTE / MEAN CORPUSCULAR HEMOGLOBIN / MEAN CORPUSCULAR HEMOGLOBIN CONCENTRATION / MEAN CORPUSCULAR VOLUME / MONOCYTE / NEUTROPHIL / NUCLEATED RED BLOOD CELLS / PLATELET COUNT: tissue Blood; for ALANINE AMINOTRANSFERASE / ALBUMIN / ALKALINE PHOSPHATASE / ASPARTATE AMINOTRANSFERASE / BLOOD UREA NITROGEN / CARBON DIOXIDE / CHLORIDE / CHOLESTEROL / CREATININE / GLUCOSE / LACTATE DEHYDROGENASE / LIPASE / PHOSPHORUS / SODIUM / TOTAL BILIRUBIN / TOTAL PROTEIN / URIC ACID: tissue Plasma
[1] = 23 mg/kg, 120 h, dose level High, time 5 day
[2] = […], 72 h, dose 2.5 mg/Kg, dose level Low, time 3 day
[3] = […], 120 h, dose 2.5 mg/Kg, dose level Low, time 5 day

With `Cc1cc2c(s1)Nc1ccccc1N=C2N1CCN(C)CC1` [OLANZAPINE] the “ABSOLUTE BASOPHIL” value [1] was 0 CELLS/uL, the “ABSOLUTE EOSINOPHIL” value [1] was 52 CELLS/uL and the “ABSOLUTE LYMPHOCYTE” value [1] was 13243.33 CELLS/uL. The “ABSOLUTE MONOCYTE” value [1] was 98.33 CELLS/uL, the “ABSOLUTE SEGMENTED NEUTROPHIL” value [1] was 1106.33 CELLS/uL and the BASOPHIL [1] was 0%. For the same compound, the EOSINOPHIL [1] was 0.33%, the HEMATOCRIT [1] was 38.23% and the “LEUKOCYTE COUNT” value [1] was 14.5 x10E3/uL. The LYMPHOCYTE [1] was 91.33%, the “MEAN CORPUSCULAR HEMOGLOBIN” value [1] was 24.67 pg and the “MEAN CORPUSCULAR HEMOGLOBIN CONCENTRATION” value [1] was 39.5 G/DL. The “MEAN CORPUSCULAR VOLUME” value [1] was 62.5 fL, the MONOCYTE [1] was 0.67% and the NEUTROPHIL [1] was 7.67%. The “NUCLEATED RED BLOOD CELLS” value [1] was 0 /100WBC, the “PLATELET COUNT” value [1] was 1008.67 x10E3/uL and the “ALANINE AMINOTRANSFERASE” value [1] was 50 u/L. The ALBUMIN [1] was 4.4 G/DL, the “ALKALINE PHOSPHATASE” value [1] was 282.67 u/L and the “ASPARTATE AMINOTRANSFERASE” value [1] was 108.67 u/L. The “BLOOD UREA NITROGEN” value [1] was 22.33 mg/dL, the “CARBON DIOXIDE” value [1] was 27.33 mmol/L and the CHLORIDE [1] was 104.33 MEQ/L. For the same compound, the CHOLESTEROL [1] was 78.33 mg/dL, the CREATININE [1] was 0.26 mg/dL and the GLUCOSE [1] was 150.33 mg/dL. For the same compound, the “LACTATE DEHYDROGENASE” value [1] was 306 u/L, the LIPASE [1] was 9.33 u/L and the PHOSPHORUS [1] was 11.63 mg/dL. The SODIUM [1] was 146.17 MEQ/L, the “TOTAL BILIRUBIN” value [1] was 0.27 mg/dL and the “TOTAL PROTEIN” value [1] was 6.1 G/DL. For the same compound, the “URIC ACID” value [1] was 1.4 mg/dL, the “ABSOLUTE BASOPHIL” value [2] was 0 CELLS/uL and the “ABSOLUTE EOSINOPHIL” value [2] was 116 CELLS/uL. The “ABSOLUTE LYMPHOCYTE” value [2] was 13788.67 CELLS/uL, the “ABSOLUTE MONOCYTE” value [2] was 239.33 CELLS/uL and the “ABSOLUTE SEGMENTED NEUTROPHIL” value [2] was 1189.33 CELLS/uL. It also gave a BASOPHIL [2] of 0%, an EOSINOPHIL [2] of 1% and an HEMATOCRIT [2] of 35.03%. The “LEUKOCYTE COUNT” value [2] was 15.33 x10E3/uL, the LYMPHOCYTE [2] was 90% and the “MEAN CORPUSCULAR HEMOGLOBIN” value [2] was 24.27 pg. The “MEAN CORPUSCULAR HEMOGLOBIN CONCENTRATION” value [2] was 38.63 G/DL, the “MEAN CORPUSCULAR VOLUME” value [2] was 62.87 fL and the MONOCYTE [2] was 1.67%. For the same compound, the NEUTROPHIL [2] was 7.33%, the “NUCLEATED RED BLOOD CELLS” value [2] was 0 /100WBC and the “PLATELET COUNT” value [2] was 1228.33 x10E3/uL. The “ALANINE AMINOTRANSFERASE” value [2] was 53.33 u/L, the ALBUMIN [2] was 4.17 G/DL and the “ALKALINE PHOSPHATASE” value [2] was 352.67 u/L. For the same compound, the “ASPARTATE AMINOTRANSFERASE” value [2] was 94.33 u/L, the “BLOOD UREA NITROGEN” value [2] was 18 mg/dL and the “CARBON DIOXIDE” value [2] was 26.67 mmol/L. For the same compound, the CHLORIDE [2] was 101 MEQ/L, the CHOLESTEROL [2] was 73.67 mg/dL and the CREATININE [2] was 0.19 mg/dL. For the same compound, the GLUCOSE [2] was 159.67 mg/dL, the “LACTATE DEHYDROGENASE” value [2] was 472.67 u/L and the LIPASE [2] was 10.33 u/L. The PHOSPHORUS [2] was 12.4 mg/dL, the SODIUM [2] was 143.67 MEQ/L and the “TOTAL BILIRUBIN” value [2] was 0.23 mg/dL. The “TOTAL PROTEIN” value [2] was 5.97 G/DL, the “URIC ACID” value [2] was 1.73 mg/dL and the “ABSOLUTE BASOPHIL” value [3] was 0 CELLS/uL. For the same compound, the “ABSOLUTE EOSINOPHIL” value [3] was 0 CELLS/uL, the “ABSOLUTE LYMPHOCYTE” value [3] was 12300.67 CELLS/uL and the “ABSOLUTE MONOCYTE” value [3] was 35.33 CELLS/uL. For the same compound, the “ABSOLUTE SEGMENTED NEUTROPHIL” value [3] was 2030.67 CELLS/uL, the BASOPHIL [3] was 0% and the EOSINOPHIL [3] was 0%. The HEMATOCRIT [3] was 34.77%, the “LEUKOCYTE COUNT” value [3] was 14.37 x10E3/uL and the LYMPHOCYTE [3] was 84.67%. For the same compound, the “MEAN CORPUSCULAR HEMOGLOBIN” value [3] was 25.5 pg, the “MEAN CORPUSCULAR HEMOGLOBIN CONCENTRATION” value [3] was 40.57 G/DL and the “MEAN CORPUSCULAR VOLUME” value [3] was 62.8 fL. For the same compound, the MONOCYTE [3] was 0.33%, the NEUTROPHIL [3] was 15% and the “NUCLEATED RED BLOOD CELLS” value [3] was 0 /100WBC. The “PLATELET COUNT” value [3] was 1181 x10E3/uL, the “ALANINE AMINOTRANSFERASE” value [3] was 50.67 u/L and the ALBUMIN [3] was 4.2 G/DL. The “ALKALINE PHOSPHATASE” value [3] was 327.67 u/L, the “ASPARTATE AMINOTRANSFERASE” value [3] was 96.67 u/L and the “BLOOD UREA NITROGEN” value [3] was 18.67 mg/dL. For the same compound, the “CARBON DIOXIDE” value [3] was 24.67 mmol/L, the CHLORIDE [3] was 101 MEQ/L and the CHOLESTEROL [3] was 82 mg/dL. For the same compound, the CREATININE [3] was 0.23 mg/dL, the GLUCOSE [3] was 160.67 mg/dL and the “LACTATE DEHYDROGENASE” value [3] was 448.33 u/L. For the same compound, the LIPASE [3] was 9.67 u/L, the PHOSPHORUS [3] was 12.83 mg/dL and the SODIUM [3] was 144.87 MEQ/L. For the same compound, the “TOTAL BILIRUBIN” value [3] was 0.27 mg/dL, the “TOTAL PROTEIN” value [3] was 5.9 G/DL and the “URIC ACID” value [3] was 1.7 mg/dL.

From ChEMBL document CHEMBL3885881, “DrugMatrix”
